Test [1] deals with Avi-humanTEAD4 217-434 / Cy5 labeled humanYAP 60-100 (Homo sapiens (Human), UniProt Q15561). In words: TR-FRET YAP-TEAD4 in-vitro biochemical assay. The test is classed as binding. As to conditions: 1 nM Avi-humanTEAD4 217-434, 20 nM Cy5-humanYAP 60-100, 1 h room temperature.
Test [2] concerns NCI-H2052 Tet-On shYAP_2371 pLenti6 MCAT_Luc cells. In words: Proliferation assay (resazurin), NCI-H2052. As to conditions: 72 hours incubation. The test is classed as cell-based. The method in brief:
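The NCI-H2052 line carries a Tet-inducible shRNA against the YAP1 3′UTR and an MCAT luciferase reporter. The day after seeding, it received eleven 2-fold compound dilutions at 0.1% DMSO, and viability was read by resazurin fluorescence.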

The test system of test [3] is MKN-45/Ubc-luc cells. In words: Reporter gene specificity control (Ubc-luciferase), MKN-45. A general note: A reporter such as luciferase makes a cellular process visible.
In test [4] the test system is MKN-45/Ubc-luc cells. Briefly: Proliferation assay (resazurin), MKN-45. Format: cell-based. As to conditions: 72 hours incubation.
For test [5], the system named is NCI-H2052 Tet-On shYAP_2371 pLenti6 MCAT_Luc cells (YAP-dependent transcription). Briefly: YAP reporter gene activity assay (MCAT-luciferase), NCI-H2052. Particulars: 24 hours incubation, BrightGlo luminescence. Format: cell-based. An outline of the steps:
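Luminescence was read 5 min after BrightGlo, following 24 h at 37 °C of compound exposure (eleven 2-fold dilutions, DMSO normalized to 0.1%). Cells were NCI-H2052 with a YAP-responsive MCAT-luciferase and a Tet-inducible shRNA against YAP1 3′UTR. Cell-free background was removed, values were normalized to vehicle, and IC50 was fitted with four parameters.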

The mark [6] stands for this setting: Homo sapiens, MKN-45, 24 h, read-out: Reporter gene assay MKN-45 IC50 [μM], MKN-45/Ubc-luc cells (YAP deleted, specificity control), 24 hours incubation.
Setting [7] is: read-out: Reporter gene assay MKN-45 IC50, MKN-45/Ubc-luc cells (YAP deleted, specificity control), 24 hours incubation.

This note sets out measurements from patent US12083101B2, “Biaryl derivatives as YAP/TAZ-TEAD protein-protein interaction inhibitors” (Novartis AG, priority 2020, dated 2024).

What is called GI50 is the concentration at which growth is held to half of that of the control. A high value points to less potent growth inhibition.

Where two headings read alike, the source gives them in different places. Bounds are passed on as bounds.

Chain of Avi-humanTEAD4 217-434 / Cy5 labeled humanYAP 60-100 (Q15561 217-434): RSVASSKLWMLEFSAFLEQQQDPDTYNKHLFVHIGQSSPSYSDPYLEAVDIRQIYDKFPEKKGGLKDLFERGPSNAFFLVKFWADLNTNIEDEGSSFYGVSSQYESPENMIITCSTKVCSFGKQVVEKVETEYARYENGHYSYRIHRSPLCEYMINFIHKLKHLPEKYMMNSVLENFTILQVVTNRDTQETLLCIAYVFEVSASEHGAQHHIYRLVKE

Take `CN(C)C(=O)C1CCC(NC[C@@]2(c3ccccc3)Cc3c(cc(F)c(Cl)c3-c3c(C(N)=O)ccc(OC(F)F)c3F)O2)CC1` (single isomer, unassigned) [Example 58a]: the IC50 was 4 nM in test [1]; over 10 µM in test [3] (setting [6]); 67 nM in test [5] (Homo sapiens, NCI-H2052, 24 h). Also, the GI50 in test [2] (Homo sapiens, NCI-H2052, 72 h) is 125 nM; in test [4] (Homo sapiens), over 10000 nM.

Consider `CN(C)C(=O)C1CCC(NC[C@@]2(c3ccccc3)Cc3c(cc(F)c(Cl)c3-c3c(C(N)=O)ccc(OC(F)F)c3F)O2)CC1` (single isomer, unassigned) [Example 58b], for which the IC50 in test [1] was 6 nM; in test [3] (setting [7]), over 10 µM; in test [5], 104 nM. For the same molecule, the GI50 is 167 nM in test [2] and over 10000 nM in test [4].

For `CC(C)(O)C1CC(NC[C@@]2(c3ccccc3)Cc3c(cc(F)c(Cl)c3-c3c(C(N)=O)ccc(OC(F)F)c3F)O2)C1` (single isomer, unassigned) [Example 62a], the IC50 was 16 nM in test [1], over 10 µM in test [3] (setting [6]) and 203 nM in test [5]. In addition, the figures for the GI50 in test [2] and in test [4] (Homo sapiens) were 240 nM and over 10000 nM, respectively.

Regarding `CC(C)(O)C1CC(NC[C@@]2(c3ccccc3)Cc3c(cc(F)c(Cl)c3-c3c(C(N)=O)ccc(OC(F)F)c3F)O2)C1` (single isomer, unassigned) [Example 62b], the IC50 in test [1] was 6 nM; in test [3] (setting [7]), over 10 µM; in test [5], 54 nM. For the same molecule, the values for the GI50 in test [2] and in test [4] were 89 nM and over 10000 nM, respectively.

As to `NC(=O)c1ccc(OC(F)F)c(F)c1-c1c(Cl)c(F)cc2c1C[C@](c1ccccc1)(C1CC(O)CN1)O2` (single isomer, unassigned) [Example 158], the IC50 in test [1] was 5 nM; in test [3] (setting [6]), over 10 µM; in test [5] (Homo sapiens, NCI-H2052, 24 h) it was 93 nM. Besides, the concentration for 50% growth inhibition (GI50) in test [2] (Homo sapiens, NCI-H2052, 72 h) was 181 nM; in test [4] (Homo sapiens) it was over 10000 nM.

For `Fc1cc2c(c(-c3ccccc3)c1Cl)C[C@](c1ccccc1)(C1COCCN1)O2` (single isomer, unassigned) [Example 162], the IC50 in test [1] was 1520 nM; in test [3] (setting [6]), over 10 µM; in test [5] (Homo sapiens, NCI-H2052, 24 h), 1000 nM. Also, the GI50 in test [2] (Homo sapiens, NCI-H2052, 72 h) is 1760 nM; in test [4] (Homo sapiens), over 10000 nM.

On to `CS(=O)(=O)[C@H]1CC[C@@H](NC[C@@]2(c3ccccc3)Cc3c(cc(F)c(Cl)c3-c3c(C(N)=O)ccc(OC(F)F)c3F)O2)CC1` [Example 54a, 2-((2S,4S)-5-Chloro-6-fluoro-2-((((cis)-4-(methylsulfonyl)cyclohexyl)amino)methyl)-2-phenyl-2,3-dihydrobenzofuran-4-yl)-4-(difluoromethoxy)-3-fluorobenzamide], for which the IC50 in test [1] is 75 nM; in test [3] (setting [6]) it was over 10 µM; in test [5] (Homo sapiens, NCI-H2052, 24 h), 147 nM. In addition, the GI50 in test [2] (Homo sapiens, NCI-H2052, 72 h) was 670 nM; in test [4] (Homo sapiens), over 10000 nM.

Regarding `CS(=O)(=O)[C@H]1CC[C@H](NC[C@@]2(c3ccccc3)Cc3c(cc(F)c(Cl)c3-c3c(C(N)=O)ccc(OC(F)F)c3F)O2)CC1` [Example 54b, 2-((2S,4S)-5-chloro-6-fluoro-2-((((trans)-4-(methylsulfonyl)cyclohexyl)amino)methyl)-2-phenyl-2,3-dihydrobenzofuran-4-yl)-4-(difluoromethoxy)-3-fluorobenzamide], the IC50 was 22 nM in test [1]; over 10 µM in test [3] (setting [6]); 118 nM in test [5] (Homo sapiens, NCI-H2052, 24 h). Also, the GI50 in test [2] (Homo sapiens, NCI-H2052, 72 h) is 258 nM; in test [4] (Homo sapiens) it was over 10000 nM.

Consider `CNC(=O)c1ccc(OCCO)c(F)c1-c1c(Cl)c(F)cc2c1C[C@](c1ccccc1)(C1CCN1)O2` (stereo partly drawn) [Example 149, 2-((2S,4S)-2-(Azetidin-2-yl)-5-chloro-6-fluoro-2-phenyl-2,3-dihydrobenzofuran-4-yl)-3-fluoro-4-(2-hydroxyethoxy)-N-methylbenzamide], for which the IC50 in test [1] is 5 nM; in test [3] (setting [6]), over 10 µM; in test [5] (Homo sapiens, NCI-H2052, 24 h) it was 96 nM. Moreover, the GI50 in test [2] (Homo sapiens, NCI-H2052, 72 h) was 100 nM; in test [4] (Homo sapiens), over 10000 nM.

As to `CNC(=O)c1ccc(OC[C@H](C)O)c(F)c1-c1c(Cl)c(F)cc2c1[C@H](C)[C@](c1ccccc1)(C1CCN1)O2` (stereo partly drawn) [Example 150, 2-((2S,3S,4S)-2-(Azetidin-2-yl)-5-chloro-6-fluoro-3-methyl-2-phenyl-2,3-dihydrobenzofuran-4-yl)-3-fluoro-4-((S)-2-hydroxypropoxy)-N-methylbenzamide], the IC50 in test [1] was 4 nM; in test [3] (setting [6]) it was over 10 µM; in test [5] (Homo sapiens, NCI-H2052, 24 h), 74 nM. In addition, the GI50 in test [2] (Homo sapiens, NCI-H2052, 72 h) was 85 nM; in test [4] (Homo sapiens) it was over 10000 nM.

As for `C[C@H](O)COc1ccc(C(N)=O)c(-c2c(Cl)c(F)cc3c2C[C@](c2ccccc2)(C2CC(C)(O)CN2)O3)c1F` (stereo partly drawn) [Example 159, 2-((2S,4S)-5-Chloro-6-fluoro-2-(4-hydroxy-4-methylpyrrolidin-2-yl)-2-phenyl-2,3-dihydrobenzofuran-4-yl)-3-fluoro-4-((S)-2-hydroxypropoxy)benzamide], the IC50 in test [1] is 122 nM; in test [3] (setting [6]) it was over 15 µM; in test [5] (Homo sapiens, NCI-H2052, 24 h) it was 1060 nM. In addition, the GI50 was 856 nM in test [2] (Homo sapiens, NCI-H2052, 72 h) and over 15000 nM in test [4] (Homo sapiens).

For `COc1ccc(C(N)=O)c(-c2c(Cl)c(F)cc3c2[C@H](O)[C@](c2ccccc2)(C2CCCN2)O3)c1F` (stereo partly drawn) [Example 164, 2-((2S,3S,4S)-5-chloro-6-fluoro-3-hydroxy-2-phenyl-2-(pyrrolidin-2-yl)-2,3-dihydrobenzofuran-4-yl)-3-fluoro-4-methoxybenzamide], the IC50 in test [1] is 4 nM; in test [3] (setting [6]), over 10 µM; in test [5] (Homo sapiens, NCI-H2052, 24 h), 107 nM. Further, the GI50 in test [2] (Homo sapiens, NCI-H2052, 72 h) was 107 nM; in test [4] (Homo sapiens) it was over 10000 nM.

Regarding `COc1ccc(C(N)=O)c(-c2c(Cl)c(F)cc3c2[C@H](OC)[C@](c2ccccc2)(C2CCCN2)O3)c1F` (stereo partly drawn) [Example 165, 2-((2S,3S,4S)-5-chloro-6-fluoro-3-methoxy-2-phenyl-2-(pyrrolidin-2-yl)-2,3-dihydrobenzofuran-4-yl)-3-fluoro-4-methoxybenzamide], the IC50 is 5 nM in test [1]; over 10 µM in test [3] (setting [6]); 82 nM in test [5] (Homo sapiens, NCI-H2052, 24 h). Further, the GI50 was 131 nM in test [2] (Homo sapiens, NCI-H2052, 72 h) and over 10000 nM in test [4] (Homo sapiens).

As for `CO[C@H]1c2c(cc(F)c(Cl)c2-c2c(C(N)=O)ccc(OCCO)c2F)O[C@@]1(c1ccccc1)C1CCCN1` (stereo partly drawn) [Example 166, 2-((2S,3S,4S)-5-chloro-6-fluoro-3-methoxy-2-phenyl-2-(pyrrolidin-2-yl)-2,3-dihydrobenzofuran-4-yl)-3-fluoro-4-(2-hydroxyethoxy)benzamide], the IC50 in test [1] is 8 nM; in test [3] (setting [6]) it was over 10 µM; in test [5] (Homo sapiens, NCI-H2052, 24 h) it was 136 nM. In addition, the GI50 in test [2] (Homo sapiens, NCI-H2052, 72 h) was 256 nM; in test [4] (Homo sapiens), over 10000 nM.

With `C[C@H](O)COc1ccc(C(N)=O)c(-c2c(Cl)c(F)cc3c2[C@H](C)[C@](c2ccccc2)(C2CCCN2)O3)c1F` (stereo partly drawn) [Example 167, 2-((2S,3S,4S)-5-chloro-6-fluoro-3-methyl-2-phenyl-2-(pyrrolidin-2-yl)-2,3-dihydrobenzofuran-4-yl)-3-fluoro-4-((S)-2-hydroxypropoxy)benzamide], the IC50 is 10 nM in test [1]; over 10 µM in test [3] (setting [6]); 58 nM in test [5] (Homo sapiens, NCI-H2052, 24 h). The GI50 is 82 nM in test [2] (Homo sapiens, NCI-H2052, 72 h) and over 10000 nM in test [4] (Homo sapiens).
